Literature values, collected in patent US20100317522A1, “Adjuvants for Agrochemical Applications” (COGNIS IP […], priority 2007, published 2010).

Details: rat, oral (WHO)

O=C(O)CNCP(=O)(O)O [Glyphosate, N-(phosphonomethyl)glycine]
LD50: 4320 mg/kg
